Assay results: article PMC6446940 (ChemMedChem, 2018)
Where two headings read alike, the source gives them in different places.

What was measured:
[1] = system: HIV-1 Env pseudovirus CRF02_AG, clone 257; test: Single-cycle assay TZM-bl, Env pseudovirus panel
[2] = system: HIV-1 Env pseudovirus CRF02_AG, clone 33; test: Single-cycle assay TZM-bl, Env pseudovirus panel
[3] = system: HIV-1 Env pseudovirus MK184.W0M.ENV.E4; test: Single-cycle assay, Paired Infant and Maternal Env clones
[4] = system: HIV-1 Env pseudovirus QF495.23M.ENV.A3; test: Single-cycle assay TZM-bl, Env pseudovirus panel
[5] = system: HIV-1 Env pseudovirus 9021_14.B2.4571; test: Single-cycle assay TZM-bl, Env pseudovirus panel
[6] = system: HIV-1 Env pseudovirus QG393.60M.ENV.B7; test: Single-cycle assay TZM-bl, Env pseudovirus panel
[7] = system: HIV-1 Env pseudovirus QD435.100M.ENV.B5; test: Single-cycle assay TZM-bl, Env pseudovirus panel
[8] = system: HIV-1 Env pseudovirus BG505.W6M.ENV.C2; test: Single-cycle assay, Paired Infant and Maternal Env clones
[9] = system: HIV-1 Env pseudovirus QA790.204I.ENV.C8; test: Single-cycle assay TZM-bl, Env pseudovirus panel
[10] = system: HIV-1 Env pseudovirus BG505-T332N; test: Single-cycle assay TZM-bl, Env pseudovirus panel
[11] = system: HIV-1 Env pseudovirus ML274.W0M.ENV.B1; test: Single-cycle assay, Paired Infant and Maternal Env clones
[12] = system: HIV-1 Env pseudovirus WEAUd15.410.5017; test: Single-cycle assay TZM-bl, Env pseudovirus panel
[13] = system: HIV-1 Env pseudovirus Du422, clone 1; test: Single-cycle assay TZM-bl, Env pseudovirus panel
[14] = system: HIV-1 Env pseudovirus HIV-16936-2, clone 21; test: Single-cycle assay TZM-bl, Env pseudovirus panel
[15] = system: HIV-1 Env pseudovirus CRF02_AG, clone 251; test: Single-cycle assay TZM-bl, Env pseudovirus panel
[16] = system: HIV-1 Env pseudovirus BK184.W6M.ENV.D2; test: Single-cycle assay, Paired Infant and Maternal Env clones
[17] = system: HIV-1 Env pseudovirus ZM109F.PB4; test: Single-cycle assay TZM-bl, Env pseudovirus panel
[18] = system: HIV-1 Env pseudovirus BL274.W6M.ENV.A3; test: Single-cycle assay, Paired Infant and Maternal Env clones
[19] = system: HIV-1 Env pseudovirus HIV-25711-2, clone 4; test: Single-cycle assay TZM-bl, Env pseudovirus panel
[20] = system: HIV-1 Env pseudovirus B41; test: Single-cycle assay TZM-bl, Env pseudovirus panel
[21] = system: HIV-1 Env pseudovirus MI206.W0M.ENV.D1; test: Single-cycle assay, Paired Infant and Maternal Env clones
[22] = system: HIV-1 Env pseudovirus 1054.TC4.1499; test: Single-cycle assay TZM-bl, Env pseudovirus panel
[23] = system: HIV-1 Env pseudovirus QB726.70M.ENV.C4; test: Single-cycle assay TZM-bl, Env pseudovirus panel
[24] = system: HIV-1 Env pseudovirus TRO, clone 11; test: Single-cycle assay TZM-bl, Env pseudovirus panel
[25] = system: control pseudovirus VSV-G; test: microbe, parasite or virus in culture; type: cell-based
[26] = system: HIV-1 Env pseudovirus QH0692, clone 42; test: Single-cycle assay TZM-bl, Env pseudovirus panel
[27] = system: HIV-1 Env pseudovirus QB099.391M.ENV.C8; test: Single-cycle assay TZM-bl, Env pseudovirus panel
[28] = system: HIV-1 Env pseudovirus HIV-25925-2, clone 22; test: Single-cycle assay TZM-bl, Env pseudovirus panel
[29] = system: HIV-1 Env pseudovirus QD435.100M.ENV.E1; test: Single-cycle assay TZM-bl, Env pseudovirus panel
Cytotoxicity [30] = type: cell-based; conditions: human, U87-CD4-CCR5 cells
[31] = system: HIV-1 Env pseudovirus THRO4156, clone 18; test: Single-cycle assay TZM-bl, Env pseudovirus panel
Cytotoxicity [32] = type: cell-based, human; conditions: human, freshly isolated and stimulated uninfected PBMC
[33] = system: HIV-1 Env pseudovirus REJO4541, clone 67; test: Single-cycle assay TZM-bl, Env pseudovirus panel
[34] = system: HIV-1 Env pseudovirus CRF02_AG, clone 253; test: Single-cycle assay TZM-bl, Env pseudovirus panel
[35] = system: HIV-1 Env pseudovirus B1206.W6P.ENV.A1A; test: Single-cycle assay, Paired Infant and Maternal Env clones

Molecule `Cc1nc([C@@H](CN)NC(=O)c2ccc(-c3ccc(F)c(F)c3)[nH]2)sc1CO` (single isomer, unassigned) [NBD-14113, reference compound] has an IC50 ([1]; subtype AG, NIH # 11599, CRF02_AG, clone 257, TZM-bl cells) of 4.6 ± 0.5 µM, an IC50 ([2]; subtype AG, NIH # 11607, CRF02_AG, clone 33, TZM-bl cells) of 3.5 ± 0.2 µM and an IC50 ([3]; subtype C/D, NIH # 11536-M (maternal), MK184.W0M.ENV.E4) of 2.6 ± 0.3 µM. For the same molecule, the IC50 ([4]; subtype A, NIH # 11891, QF495.23M.ENV.A3, TZM-bl cells) was 4 ± 0.2 µM, the IC50 ([5]; subtype B, NIH # 11572, 9021_14.B2.4571, TZM-bl cells) was 3.2 ± 0.2 µM and the IC50 ([6]; subtype A2/D, NIH # 11906, QG393.60M.ENV.B7, TZM-bl cells) was 5.9 ± 0.1 µM. For the same molecule, the IC50 ([7]; subtype D, NIH # 11916, QD435.100M.ENV.B5, TZM-bl cells) was 2.2 ± 0.3 µM, the IC50 ([8]; subtype A, NIH # 11518-B (infant), BG505.W6M.ENV.C2) was 4.4 ± 0.3 µM and the IC50 ([9]; subtype A1/D, NIH # 11903, QA790.204I.ENV.C8, TZM-bl cells) was 4.3 ± 0.1 µM. For the same molecule, the IC50 ([10]; subtype A, BG505-T332N, TZM-bl cells) was 3.3 ± 0.2 µM, the IC50 ([11]; subtype A, NIH # 11540-M (maternal), ML274.W0M.ENV.B1) was 4.5 ± 0.6 µM and the IC50 ([12]; subtype B, NIH # 11578, WEAUd15.410.5017, R5X4-tropic virus, TZM-bl cells) was 3.7 ± 0.3 µM. The IC50 ([13]; subtype C, NIH # 11308, Du422, clone 1, TZM-bl cells) was 3 ± 0.1 µM, the IC50 ([14]; subtype C, NIH # 11504, HIV-16936-2, clone 21, TZM-bl cells) was 5.9 ± 0.2 µM and the IC50 ([15]; subtype AG, NIH # 11595, CRF02_AG, clone 251, TZM-bl cells) was 3 ± 0.2 µM. For the same molecule, the IC50 ([16]; subtype C/D, NIH # 11522-B (infant), BK184.W6M.ENV.D2) was 3.6 ± 0.2 µM, the IC50 ([17]; subtype C, NIH # 11314, ZM109F.PB4, TZM-bl cells) was 1.9 ± 0.1 µM and the IC50 ([18]; subtype A, NIH # 11525-B (infant), BL274.W6M.ENV.A3) was 5.7 ± 0.3 µM. For the same molecule, the IC50 ([19]; subtype C, NIH # 11506, HIV-25711-2, clone 4, TZM-bl cells) was 4.7 ± 0.4 µM, the IC50 ([20]; subtype B, B41, TZM-bl cells) was 3.4 ± 0.1 µM and the IC50 ([21]; subtype A, NIH # 11531-M (maternal), MI206.W0M.ENV.D1) was 3.4 ± 0.2 µM. The IC50 ([22]; subtype B, NIH # 11561, 1054.TC4.1499, TZM-bl cells) was 3.6 ± 0.2 µM, the IC50 ([23]; subtype A, NIH # 11888, QB726.70M.ENV.C4, TZM-bl cells) was 4 ± 0.2 µM and the IC50 ([24]; subtype B, NIH # 11023, TRO, clone 11, TZM-bl cells) was 5.1 ± 0.1 µM. It also gave an IC50 [25] of 26.3 ± 1.4 µM, an IC50 ([26]; subtype B, NIH # 11018, QH0692, clone 42, TZM-bl cells) of 4.3 ± 0.4 µM and an IC50 ([27]; subtype C, NIH # 11909, QB099.391M.ENV.C8, TZM-bl cells) of 4 ± 0.3 µM.

With `Cc1nc(C(CN)NC(=O)c2ccc(-c3ccc4c(c3)OCO4)[nH]2)sc1CO` (stereo not shown) [NBD-14110, N-(2-amino-1-(5-(hydroxymethyl)-4-methylthiazol-2-yl)ethyl)-5-(benzo[d][1,3]dioxol-5-yl)-1H-pyrrole-2-carboxamide] the IC50 [28] was 4.7 ± 0.1 µM, the IC50 ([1]; TZM-bl) was 5.4 ± 0.2 µM and the IC50 [29] was 5.9 ± 0.4 µM. It also gave an IC50 ([2]; TZM-bl) of 5 ± 0.3 µM, a CC50 at 3 days (Cytotoxicity [30]) of over 100 µM and an IC50 [3] of 3.4 ± 0.2 µM. The IC50 ([4]; TZM-bl) was 3 ± 0.1 µM, the IC50 ([5]; TZM-bl) was 4.5 ± 0.5 µM and the IC50 [31] was 2.7 ± 0.2 µM. It also gave an IC50 ([6]; TZM-bl) of 5.2 ± 0.3 µM, an IC50 ([7]; TZM-bl) of 2.4 ± 0.2 µM and a CC50 at 7 days (Cytotoxicity [32]) of 62.8 ± 2.9 µM. For the same molecule, the IC50 [8] was 4.8 ± 0.3 µM, the IC50 ([9]; TZM-bl) was 2.4 ± 0.2 µM and the IC50 ([10]; TZM-bl) was 4.2 ± 0.5 µM. It also gave an IC50 [11] of 7.1 ± 0.3 µM, an IC50 [33] of 3.4 ± 0.3 µM and an IC50 ([12]; TZM-bl) of 1.6 ± 0.1 µM. It also gave an IC50 ([13]; TZM-bl) of 1.8 ± 0.2 µM, an IC50 [34] of 3.2 ± 0.2 µM and an IC50 ([14]; TZM-bl) of 3.5 ± 0.1 µM. It also gave an IC50 ([15]; TZM-bl) of 2.5 ± 0.1 µM, an IC50 [16] of 3.7 ± 0.6 µM and an IC50 ([17]; TZM-bl) of 4.9 ± 0.1 µM. It also gave an IC50 [18] of 7.2 ± 0.1 µM, an IC50 ([19]; TZM-bl) of 4.4 ± 0.4 µM and an IC50 ([20]; TZM-bl) of 2 ± 0.1 µM. For the same molecule, the IC50 [21] was 4.7 ± 0.2 µM, the IC50 ([22]; TZM-bl) was 4.2 ± 0.4 µM and the IC50 ([23]; TZM-bl) was 3.7 ± 0.3 µM. It also gave an IC50 ([24]; TZM-bl) of 2.4 ± 0.4 µM, an IC50 ([25]; Pseudovirus, U87/CD4/CCR5) of 51.6 ± 4.4 µM and an IC50 ([26]; TZM-bl) of 8.2 ± 0.2 µM. The IC50 ([27]; TZM-bl) was 4.3 ± 0.5 µM and the IC50 [35] was 5.6 ± 0.2 µM.

With `NCC(NC(=O)c1ccc(-c2ccc3c(c2)OCO3)[nH]1)c1ncc(CO)s1` (stereo not shown) [NBD-14123, N-(2-amino-1-(5-(hydroxymethyl)thiazol-2-yl)ethyl)-5-(benzo[d][1,3]dioxol-5-yl)-1H-pyrrole-2-carboxamide] the IC50 [28] was 5.6 ± 0.3 µM, the IC50 ([1]; TZM-bl) was 4.4 ± 0.1 µM and the IC50 [29] was 5.3 ± 0.4 µM. The IC50 ([2]; TZM-bl) was 3.5 ± 0.4 µM, the CC50 at 3 days (Cytotoxicity [30]) was over 100 µM and the IC50 [3] was 3.7 ± 0.1 µM. The IC50 ([4]; TZM-bl) was 3.3 ± 0.2 µM, the IC50 ([5]; TZM-bl) was 2.1 ± 0.6 µM and the IC50 [31] was 3.1 ± 0.1 µM. For the same molecule, the IC50 ([6]; TZM-bl) was 5.9 ± 0.2 µM, the IC50 ([7]; TZM-bl) was 3.5 ± 0.3 µM and the CC50 at 7 days (Cytotoxicity [32]) was 61.3 ± 4 µM. For the same molecule, the IC50 [8] was 4.4 ± 0.1 µM, the IC50 ([9]; TZM-bl) was 1.4 ± 0.2 µM and the IC50 ([10]; TZM-bl) was 4 ± 0.5 µM. For the same molecule, the IC50 [11] was 5.6 ± 0.4 µM, the IC50 [33] was 3.4 ± 0.2 µM and the IC50 ([12]; TZM-bl) was 3.4 ± 0.2 µM. It also gave an IC50 ([13]; TZM-bl) of 2.5 ± 0.3 µM, an IC50 [34] of 3.2 ± 0.2 µM and an IC50 ([14]; TZM-bl) of 4.4 ± 0.5 µM. For the same molecule, the IC50 ([15]; TZM-bl) was 3.1 ± 0.2 µM, the IC50 [16] was 3.6 ± 0.1 µM and the IC50 ([17]; TZM-bl) was 3 ± 0.2 µM. For the same molecule, the IC50 [18] was 5.7 ± 0.3 µM, the IC50 ([19]; TZM-bl) was 5.7 ± 0.7 µM and the IC50 ([20]; TZM-bl) was 2.8 ± 0.3 µM. It also gave an IC50 [21] of 3.4 ± 0.3 µM, an IC50 ([22]; TZM-bl) of 2.4 ± 0.3 µM and an IC50 ([23]; TZM-bl) of 3.5 ± 0.1 µM. For the same molecule, the IC50 ([24]; TZM-bl) was 3.6 ± 0.2 µM, the IC50 ([25]; Pseudovirus, U87/CD4/CCR5) was 45.3 ± 2.3 µM and the IC50 ([26]; TZM-bl) was 6.4 ± 0.1 µM. It also gave an IC50 ([27]; TZM-bl) of 4.4 ± 0.6 µM and an IC50 [35] of 4.9 ± 0.3 µM.
